Patent publication US20220168302A1, “SALTS OF A COMPOUND, CRYSTAL FORMS OF THE SALTS AND PREPARATION METHOD AND USE THEREOF” (Gan & Lee Pharmaceuticals Co., Ltd., priority 2019, published 2022)
Converted amounts (≈) assume the structure as drawn.

Columns and labels:
Format in all cases: physicochemical
[1] = Solubility test in water, FaSSIF and FeSSIF (24 h, 37° C., HPLC concentration); settings: initial feeding amount 10 mg/ml
Method: Experimental method: the solubility test was carried out in three solvents including water, fasted state simulated intestinal fluid (FaSSIF) and fed state simulated intestinal fluid (FeSSIF), to evaluate the solubilities of the salts of the present invention.
In the experiment, the sample and the solvent were mixed in a centrifuge tube (the initial feeding amount was 10 mg/ml), then the centrifuge tube was sealed and fixed on a rotating disk with a rotation speed of 25 rpm, and sampling was performed after rotating and mixing for 24 h at 37° C. The turbid sample was subjected to centrifugal separation, and the filtered supernatant was measured for HPLC concentration. If the sample solution was clear, the concentration of the obtained solution was measured.

[2] = as above; settings: stated in background
[3] = Solid-state stability test, one week, HPLC purity; settings: for HPLC purity 1 week: open container
Method: Experimental method: appropriate amount of samples were respectively weighed and placed in open containers under the conditions of light illumination of 4500 lux, 25° C./60% RH and 40° C./75% RH to perform solid-state stability test evaluation for one week. One week later, the purities of the test samples were tested by HPLC to detect the change of purity. Three groups of parallel tests were set for each test condition.
High performance liquid chromatograms were collected on an Agilent 1100 HPLC.

[4] = Dynamic moisture adsorption (DVS) hygroscopicity test
Method: The moisture adsorption capacities of the representative salts and the free base of the above Examples and Comparative Examples were tested when the humidity reached 80% RH through a dynamic moisture adsorption (DVS) test at 25° C., so as to compare the hygroscopicities.
Experimental results: the test results are shown in Table 13, wherein, >15% means very hygroscopic, 2% to 15% means hygroscopic, 0.2% to 2% means slightly hygroscopic, and <0.2% means almost non-hygroscopic.

CC1=Nc2c(F)cc(-c3nc(Nc4ccc(C5CCN(C)CC5)cn4)ncc3F)cc2C12CCCC2 [Free base crystal form A, 5-fluoro-4-(7′-fluoro-2′-methylspiro[cyclopentane-1,3′-indol]-5′-yl)-N-(5-(1-methylpiperidin-4-yl)pyridin-2-yl)pyrimidine-2-amine, reference compound]
solubility at 24 h ([1]; FeSSIF, 37 °C, fessif, thermodynamic from solid, fed state simulated intestinal fluid, read-out: Solubility in FeSSIF): 10.2 mg/mL (≈ 20900 µM)
Solubility in FaSSIF ([1]; fasted state simulated intestinal fluid): 0.19 mg/mL (≈ 389 µM)
Solubility in water ([1]; water): 0.075 mg/mL (≈ 154 µM)
solubility [2]: 75 µg/mL (≈ 154 µM)
HPLC purity 1 week Relative to the initial purity ([3]; 25° C./60% RH): 100.0%
HPLC purity 1 week ([3]; 25° C./60% RH): 100.0 Area %
HPLC purity 1 week Relative to the initial purity ([3]; 40° C./75% RH): 99.9%
HPLC purity 1 week ([3]; 40° C./75% RH): 99.92 Area %
HPLC purity 1 week Relative to the initial purity ([3]; Light illumination 4500 lux): 99.3%
HPLC purity 1 week Relative to the initial purity ([3]; Light illumination 4500 lux, listed as free base crystal form A): 99.3%
HPLC purity 1 week ([3]; Light illumination 4500 lux): 99.28 Area %
HPLC purity, Initial purity ([3]; initial, before storage): 100.00 Area %
Hygroscopicity (moisture adsorption capacity) ([4]; DVS, 25° C./80% RH): 0.10%
Whether the crystal form has a change ([4]; XRPD before and after DVS test): No change
